Earlier results as cited in US20100210719A1, “O-DESMETHYLVENLAFAXINE” (DR. REDDY'S LABORATORIES LTD., priority 2007, published 2010).

Conditions: inferred from the major DSC endotherm at about 120° C. and Tg onset at 18° C. reported in U.S. Pat. No. 6,673,838

Which “stability of the amorphous form” value does the source give for `CN(C)CC(c1ccc(O)cc1)C1(O)CCCCC1` (stereo not shown) [desvenlafaxine succinate] here?
Its value is “highly unstable”.
